Measured values reported in ChEMBL document CHEMBL4507276 (2021).

Key:
[1] = biological target: Phosphatidylinositol 4,5-bisphosphate 3-kinase catalytic subunit gamma isoform (Homo sapiens) (UniProt P48736); test: PIK3CG Invitrogen selectivity data (BI); conditions: Compound concentration 3.0 uM
[2] = biological target: T1, Alpha-1B adrenergic receptor (Homo sapiens) (UniProt P35368); test: ALPHA1B/HU Cerep selectivity data (BI); conditions: Compound concentration 20.0 uM
T1 sequence (whole entry): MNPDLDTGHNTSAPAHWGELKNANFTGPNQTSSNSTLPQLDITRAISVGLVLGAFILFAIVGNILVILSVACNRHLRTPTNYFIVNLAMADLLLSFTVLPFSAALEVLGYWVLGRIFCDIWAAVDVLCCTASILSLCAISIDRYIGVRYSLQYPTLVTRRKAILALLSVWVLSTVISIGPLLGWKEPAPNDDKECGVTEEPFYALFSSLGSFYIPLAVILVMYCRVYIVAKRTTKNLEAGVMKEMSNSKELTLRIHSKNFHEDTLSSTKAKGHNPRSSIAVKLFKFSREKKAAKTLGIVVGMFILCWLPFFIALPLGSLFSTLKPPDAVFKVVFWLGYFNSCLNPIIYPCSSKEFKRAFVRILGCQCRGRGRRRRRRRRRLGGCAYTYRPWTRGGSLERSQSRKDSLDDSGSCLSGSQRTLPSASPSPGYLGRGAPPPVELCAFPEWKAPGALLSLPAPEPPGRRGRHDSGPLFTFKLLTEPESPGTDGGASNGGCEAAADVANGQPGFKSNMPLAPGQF

[3] = biological target: Histamine H1 receptor (Homo sapiens) (UniProt P35367); test: H1/H Eurofins-Panlabs selectivity data (BI); conditions: Compound concentration 10.0 uM
[4] = biological target: T2, D(4) dopamine receptor (Homo sapiens) (UniProt P21917); test: D4.2/H Eurofins-Panlabs selectivity data (BI); conditions: Compound concentration 10.0 uM
T2 sequence (whole entry): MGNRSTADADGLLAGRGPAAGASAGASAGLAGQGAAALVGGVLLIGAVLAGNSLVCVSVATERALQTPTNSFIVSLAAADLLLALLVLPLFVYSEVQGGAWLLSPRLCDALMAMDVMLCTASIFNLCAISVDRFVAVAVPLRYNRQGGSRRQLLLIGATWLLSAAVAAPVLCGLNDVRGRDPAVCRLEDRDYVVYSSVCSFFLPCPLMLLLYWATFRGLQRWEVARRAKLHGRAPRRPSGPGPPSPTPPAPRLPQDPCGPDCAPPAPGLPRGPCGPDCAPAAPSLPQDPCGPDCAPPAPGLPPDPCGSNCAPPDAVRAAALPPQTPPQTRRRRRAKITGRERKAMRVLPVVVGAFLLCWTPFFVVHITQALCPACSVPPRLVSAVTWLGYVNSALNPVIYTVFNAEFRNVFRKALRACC

[5] = biological target: Death-associated protein kinase 1 (Homo sapiens) (UniProt P53355); test: DAPK1 Invitrogen selectivity data (BI); conditions: Compound concentration 3.0 uM
[6] = biological target: T3, Ephrin type-A receptor 8 (Homo sapiens) (UniProt P29322); test: EPHA8 Invitrogen selectivity data (BI); conditions: Compound concentration 3.0 uM
T3 sequence (whole entry): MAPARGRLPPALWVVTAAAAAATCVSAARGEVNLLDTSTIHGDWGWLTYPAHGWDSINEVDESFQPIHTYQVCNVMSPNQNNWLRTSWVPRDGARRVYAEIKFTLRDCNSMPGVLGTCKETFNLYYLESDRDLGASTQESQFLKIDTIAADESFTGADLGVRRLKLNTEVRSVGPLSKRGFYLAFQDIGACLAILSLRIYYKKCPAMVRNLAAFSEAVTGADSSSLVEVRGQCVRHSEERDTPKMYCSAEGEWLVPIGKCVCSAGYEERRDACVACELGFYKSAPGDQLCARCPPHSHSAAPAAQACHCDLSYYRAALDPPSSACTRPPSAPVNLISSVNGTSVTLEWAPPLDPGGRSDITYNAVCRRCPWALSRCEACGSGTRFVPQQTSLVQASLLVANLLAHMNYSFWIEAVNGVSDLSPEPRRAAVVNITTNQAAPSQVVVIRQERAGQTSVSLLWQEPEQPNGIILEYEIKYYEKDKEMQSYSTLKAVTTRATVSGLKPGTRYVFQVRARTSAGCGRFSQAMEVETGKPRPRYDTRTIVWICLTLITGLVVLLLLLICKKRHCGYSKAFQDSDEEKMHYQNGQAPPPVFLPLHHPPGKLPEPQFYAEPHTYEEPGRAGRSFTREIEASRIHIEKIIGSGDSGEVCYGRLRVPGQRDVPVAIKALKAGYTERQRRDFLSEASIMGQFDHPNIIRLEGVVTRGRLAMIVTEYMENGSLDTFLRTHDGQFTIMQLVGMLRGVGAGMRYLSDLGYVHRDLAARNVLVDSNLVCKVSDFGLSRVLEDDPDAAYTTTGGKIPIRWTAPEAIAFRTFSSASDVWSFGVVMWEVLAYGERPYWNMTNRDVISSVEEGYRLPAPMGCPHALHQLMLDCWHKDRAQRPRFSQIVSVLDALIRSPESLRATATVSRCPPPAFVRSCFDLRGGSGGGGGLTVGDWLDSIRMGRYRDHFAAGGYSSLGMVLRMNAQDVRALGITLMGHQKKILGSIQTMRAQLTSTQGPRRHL

[7] = biological target: T4, 5-hydroxytryptamine receptor 2C (Homo sapiens) (UniProt P28335); test: 5HT2CH_AGON Cerep selectivity data (BI); conditions: filed as agonist, Compound concentration 20.0 uM
T4 sequence (whole entry): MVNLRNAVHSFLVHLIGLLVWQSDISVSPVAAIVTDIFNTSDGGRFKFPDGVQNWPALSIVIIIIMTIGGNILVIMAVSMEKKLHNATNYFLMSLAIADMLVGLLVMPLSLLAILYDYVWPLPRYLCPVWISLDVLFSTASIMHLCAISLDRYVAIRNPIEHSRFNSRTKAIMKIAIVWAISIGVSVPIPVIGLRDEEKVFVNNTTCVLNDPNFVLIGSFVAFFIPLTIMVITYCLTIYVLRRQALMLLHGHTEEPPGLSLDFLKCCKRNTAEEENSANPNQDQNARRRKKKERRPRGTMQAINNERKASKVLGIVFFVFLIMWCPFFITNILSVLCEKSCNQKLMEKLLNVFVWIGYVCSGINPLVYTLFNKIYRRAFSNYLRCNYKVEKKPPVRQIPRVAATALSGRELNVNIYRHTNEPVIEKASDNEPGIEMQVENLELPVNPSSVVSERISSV

Measured: residual activity

Sequence of Phosphatidylinositol 4,5-bisphosphate 3-kinase catalytic subunit gamma isoform (Homo sapiens) (P48736 whole entry, looked up, canonical isoform): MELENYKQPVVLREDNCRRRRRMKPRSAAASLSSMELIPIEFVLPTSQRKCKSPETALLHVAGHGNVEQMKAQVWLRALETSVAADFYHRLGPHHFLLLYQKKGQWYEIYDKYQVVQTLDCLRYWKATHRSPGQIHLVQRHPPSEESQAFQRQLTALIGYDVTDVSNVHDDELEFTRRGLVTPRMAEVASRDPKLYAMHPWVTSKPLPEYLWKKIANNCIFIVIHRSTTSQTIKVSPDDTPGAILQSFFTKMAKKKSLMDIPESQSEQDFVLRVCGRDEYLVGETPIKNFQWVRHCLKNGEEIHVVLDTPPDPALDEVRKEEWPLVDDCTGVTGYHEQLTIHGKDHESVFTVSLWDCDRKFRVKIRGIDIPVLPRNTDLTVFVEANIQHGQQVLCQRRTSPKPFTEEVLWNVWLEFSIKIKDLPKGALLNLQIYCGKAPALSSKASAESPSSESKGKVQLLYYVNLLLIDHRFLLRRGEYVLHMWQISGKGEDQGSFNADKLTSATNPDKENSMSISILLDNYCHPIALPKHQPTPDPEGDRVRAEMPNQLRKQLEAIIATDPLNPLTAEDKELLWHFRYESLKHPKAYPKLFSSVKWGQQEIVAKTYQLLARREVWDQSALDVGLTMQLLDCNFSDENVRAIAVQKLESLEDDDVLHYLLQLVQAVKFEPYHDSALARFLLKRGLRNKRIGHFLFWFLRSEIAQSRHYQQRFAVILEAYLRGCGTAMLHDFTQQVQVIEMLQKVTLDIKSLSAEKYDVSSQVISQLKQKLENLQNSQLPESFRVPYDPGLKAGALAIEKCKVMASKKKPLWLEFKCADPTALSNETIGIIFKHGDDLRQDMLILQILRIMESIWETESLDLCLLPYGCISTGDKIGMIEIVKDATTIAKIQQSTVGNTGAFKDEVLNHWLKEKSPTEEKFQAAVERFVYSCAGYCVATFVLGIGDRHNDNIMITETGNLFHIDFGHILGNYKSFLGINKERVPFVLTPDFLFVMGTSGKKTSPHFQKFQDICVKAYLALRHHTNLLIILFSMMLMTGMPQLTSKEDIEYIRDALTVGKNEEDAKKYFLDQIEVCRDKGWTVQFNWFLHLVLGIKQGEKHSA
Sequence of Death-associated protein kinase 1 (Homo sapiens) (P53355 whole entry, looked up): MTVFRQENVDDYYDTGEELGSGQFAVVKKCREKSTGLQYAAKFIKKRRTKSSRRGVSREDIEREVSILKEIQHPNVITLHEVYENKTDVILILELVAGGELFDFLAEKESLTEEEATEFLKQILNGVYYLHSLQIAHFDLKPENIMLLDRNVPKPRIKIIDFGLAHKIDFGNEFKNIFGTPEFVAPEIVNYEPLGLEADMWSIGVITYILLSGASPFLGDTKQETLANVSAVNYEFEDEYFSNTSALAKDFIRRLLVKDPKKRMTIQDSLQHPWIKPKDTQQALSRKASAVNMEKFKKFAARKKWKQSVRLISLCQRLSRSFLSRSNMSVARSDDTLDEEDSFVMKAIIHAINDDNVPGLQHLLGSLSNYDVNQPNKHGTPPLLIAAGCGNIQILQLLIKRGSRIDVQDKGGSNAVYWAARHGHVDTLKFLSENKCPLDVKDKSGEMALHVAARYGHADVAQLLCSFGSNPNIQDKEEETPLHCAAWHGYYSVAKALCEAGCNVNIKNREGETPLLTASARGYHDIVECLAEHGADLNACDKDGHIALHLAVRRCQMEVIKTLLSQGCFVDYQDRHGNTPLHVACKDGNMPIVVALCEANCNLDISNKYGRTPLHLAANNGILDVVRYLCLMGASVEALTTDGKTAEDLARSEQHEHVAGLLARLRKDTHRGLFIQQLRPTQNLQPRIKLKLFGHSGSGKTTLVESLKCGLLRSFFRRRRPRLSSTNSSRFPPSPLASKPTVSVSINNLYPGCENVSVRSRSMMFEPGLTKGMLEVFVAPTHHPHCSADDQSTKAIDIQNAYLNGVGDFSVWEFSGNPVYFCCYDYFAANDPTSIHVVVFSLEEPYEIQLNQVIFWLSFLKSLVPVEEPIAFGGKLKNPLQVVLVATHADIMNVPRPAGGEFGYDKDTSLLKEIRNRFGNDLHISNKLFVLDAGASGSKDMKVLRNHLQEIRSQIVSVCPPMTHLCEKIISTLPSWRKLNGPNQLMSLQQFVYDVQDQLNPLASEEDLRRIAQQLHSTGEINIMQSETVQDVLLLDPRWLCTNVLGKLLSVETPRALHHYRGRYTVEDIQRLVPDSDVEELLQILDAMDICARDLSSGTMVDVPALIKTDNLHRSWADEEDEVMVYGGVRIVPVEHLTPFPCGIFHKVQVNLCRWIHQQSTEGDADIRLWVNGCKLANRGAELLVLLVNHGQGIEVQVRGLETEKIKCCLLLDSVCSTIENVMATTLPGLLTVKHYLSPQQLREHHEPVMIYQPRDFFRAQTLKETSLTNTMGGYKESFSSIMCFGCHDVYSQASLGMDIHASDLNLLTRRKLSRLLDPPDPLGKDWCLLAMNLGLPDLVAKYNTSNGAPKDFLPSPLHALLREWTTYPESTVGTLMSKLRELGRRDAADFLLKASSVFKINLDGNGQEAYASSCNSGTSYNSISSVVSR
Sequence of Histamine H1 receptor (Homo sapiens) (P35367 whole entry): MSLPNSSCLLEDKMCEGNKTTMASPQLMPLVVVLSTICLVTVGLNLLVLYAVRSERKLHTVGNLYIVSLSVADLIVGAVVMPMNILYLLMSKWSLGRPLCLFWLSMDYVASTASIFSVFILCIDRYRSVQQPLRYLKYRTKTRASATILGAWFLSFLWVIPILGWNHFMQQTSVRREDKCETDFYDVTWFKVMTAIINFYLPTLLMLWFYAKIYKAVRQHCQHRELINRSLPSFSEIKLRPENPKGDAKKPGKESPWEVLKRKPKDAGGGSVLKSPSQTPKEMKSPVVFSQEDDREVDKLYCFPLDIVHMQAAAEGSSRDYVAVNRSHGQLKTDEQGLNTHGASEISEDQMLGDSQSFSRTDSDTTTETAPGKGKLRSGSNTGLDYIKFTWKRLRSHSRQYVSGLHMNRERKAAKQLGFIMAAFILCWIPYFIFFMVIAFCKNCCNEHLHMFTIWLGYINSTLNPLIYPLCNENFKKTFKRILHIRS

CN(C)C(=O)Cn1cc(-c2nc([C@@](C)(c3ccc(-c4cnc(N)nc4)cc3)C3CC3)no2)cn1 [BI 665915]
inactive: [1] 104% | [2] 120% | [3] 103% | [4] 98% | [5] 99.5% | [6] 98.5% | [7] 90%
